From ChEMBL document CHEMBL1201862, “PubChem BioAssay data set” (2004)
Active and inactive are the calls of the source. Unless noted, the calls are words filed in the database; no cut-off is given here.

Experiments:
Type in all cases: functional
[1] = biological target: DNA dC->dU-editing enzyme APOBEC-3A (Homo sapiens, UniProt P31941); test: SAR analysis of small molecule inhibitors of APOBEC3A DNA Deaminase via a fluorescence-based single-stranded DNA deaminase assay - Set 2.; settings: read-out: IC50_Mean
DNA dC->dU-editing enzyme APOBEC-3A, sequence (P31941 whole entry): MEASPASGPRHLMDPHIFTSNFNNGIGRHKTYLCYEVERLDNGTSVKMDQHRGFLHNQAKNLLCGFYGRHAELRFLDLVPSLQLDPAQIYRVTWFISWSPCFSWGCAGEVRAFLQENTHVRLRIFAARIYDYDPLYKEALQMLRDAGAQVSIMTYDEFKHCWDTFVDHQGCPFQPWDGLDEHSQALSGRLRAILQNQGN

[2] = biological target: DNA dC->dU-editing enzyme APOBEC-3G (Homo sapiens, UniProt Q9HC16); test: SAR analysis of small molecule inhibitors of APOBEC3G DNA Deaminase via a fluorescence-based single-stranded DNA deaminase assay - Set 2.; settings: read-out: IC50_Mean
DNA dC->dU-editing enzyme APOBEC-3G, sequence (Q9HC16 whole entry): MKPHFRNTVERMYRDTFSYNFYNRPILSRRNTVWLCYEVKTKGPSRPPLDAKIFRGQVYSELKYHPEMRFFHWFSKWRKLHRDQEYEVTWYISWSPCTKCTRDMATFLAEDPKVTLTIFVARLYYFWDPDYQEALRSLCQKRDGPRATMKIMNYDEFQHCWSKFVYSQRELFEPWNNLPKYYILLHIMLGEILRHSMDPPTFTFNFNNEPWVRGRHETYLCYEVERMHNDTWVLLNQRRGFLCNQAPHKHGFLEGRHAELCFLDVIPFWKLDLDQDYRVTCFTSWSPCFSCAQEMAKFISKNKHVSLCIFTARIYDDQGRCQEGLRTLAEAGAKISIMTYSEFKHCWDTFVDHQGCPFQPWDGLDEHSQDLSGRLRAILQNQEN

[3] = biological target: T1, Apoptotic protease-activating factor 1 (Homo sapiens, UniProt O14727); test: SAR analysis of small molecule Activators of Apaf-1 in a Fluorescent assay - set 2.; settings: read-out: EC50_Mean
T1 sequence (O14727 whole entry): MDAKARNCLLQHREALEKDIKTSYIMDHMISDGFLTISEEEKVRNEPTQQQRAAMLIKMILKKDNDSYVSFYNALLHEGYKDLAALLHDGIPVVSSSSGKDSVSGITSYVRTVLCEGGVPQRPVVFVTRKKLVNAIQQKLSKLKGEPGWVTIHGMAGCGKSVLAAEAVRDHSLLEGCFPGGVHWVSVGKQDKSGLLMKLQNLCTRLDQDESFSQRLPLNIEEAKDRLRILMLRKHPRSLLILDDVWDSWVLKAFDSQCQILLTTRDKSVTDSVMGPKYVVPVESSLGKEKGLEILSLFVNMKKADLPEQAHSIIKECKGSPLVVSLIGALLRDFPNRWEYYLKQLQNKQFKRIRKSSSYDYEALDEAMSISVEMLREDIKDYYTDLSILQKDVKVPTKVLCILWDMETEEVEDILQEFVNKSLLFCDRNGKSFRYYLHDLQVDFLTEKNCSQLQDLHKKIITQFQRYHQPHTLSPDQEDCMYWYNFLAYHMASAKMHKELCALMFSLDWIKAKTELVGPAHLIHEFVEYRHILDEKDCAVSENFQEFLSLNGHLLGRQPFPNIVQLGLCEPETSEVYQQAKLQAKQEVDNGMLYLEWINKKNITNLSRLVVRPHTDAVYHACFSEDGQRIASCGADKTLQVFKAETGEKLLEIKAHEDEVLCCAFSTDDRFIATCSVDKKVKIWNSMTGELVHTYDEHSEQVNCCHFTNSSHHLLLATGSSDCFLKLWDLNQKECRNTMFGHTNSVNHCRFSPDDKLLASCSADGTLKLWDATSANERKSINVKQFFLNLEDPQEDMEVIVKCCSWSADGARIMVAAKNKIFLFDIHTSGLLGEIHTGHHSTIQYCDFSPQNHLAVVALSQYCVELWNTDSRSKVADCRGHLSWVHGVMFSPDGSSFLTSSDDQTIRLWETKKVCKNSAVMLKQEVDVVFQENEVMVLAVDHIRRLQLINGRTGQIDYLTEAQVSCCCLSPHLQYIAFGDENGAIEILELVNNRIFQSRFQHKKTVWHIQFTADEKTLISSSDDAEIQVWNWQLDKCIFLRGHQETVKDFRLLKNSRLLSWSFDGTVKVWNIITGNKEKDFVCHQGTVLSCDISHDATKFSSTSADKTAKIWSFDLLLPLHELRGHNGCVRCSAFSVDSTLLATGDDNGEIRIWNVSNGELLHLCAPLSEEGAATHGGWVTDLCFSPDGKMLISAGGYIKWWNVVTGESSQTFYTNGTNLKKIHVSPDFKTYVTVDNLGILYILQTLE

[4] = SAR analysis of small molecule activators of Apaf-1 using a LZ-Caspase-9/Caspase-3 Fluorescent Selectivity assay - Set 2.; settings: read-out: EC50_Mean
[5] = biological target: T2, Orexin/Hypocretin receptor type 1 (Homo sapiens, UniProt O43613); test: Homogeneous Time Resolved Fluorescence (HTRF)-based cell-based high throughput dose response assay for antagonists of the orexin 1 receptor (OX1R; HCRTR1). [Related pubchem assays (depositor defined):AID434989, AID435008, AID463079, AID485270, AID492963, AID492964, AID492965, AID493232, AID504717, AID504718]
T2 sequence (O43613 whole entry): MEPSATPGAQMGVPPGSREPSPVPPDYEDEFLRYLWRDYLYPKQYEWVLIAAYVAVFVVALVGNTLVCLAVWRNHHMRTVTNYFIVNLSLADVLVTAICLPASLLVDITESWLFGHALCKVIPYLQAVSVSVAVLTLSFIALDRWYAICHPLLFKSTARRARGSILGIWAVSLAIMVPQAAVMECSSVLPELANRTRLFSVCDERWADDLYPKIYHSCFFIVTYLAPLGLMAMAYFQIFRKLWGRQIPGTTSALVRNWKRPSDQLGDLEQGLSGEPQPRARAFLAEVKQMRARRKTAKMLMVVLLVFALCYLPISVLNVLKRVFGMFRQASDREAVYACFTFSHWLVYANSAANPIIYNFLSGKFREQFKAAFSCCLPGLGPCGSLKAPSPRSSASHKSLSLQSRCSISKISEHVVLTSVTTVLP

[6] = (§1) Counterscreen for antagonists of the orexin 1 receptor (OX1R; HCRTR1): Fluorescence-based cell-based high throughput dose response assay to identify antagonists of the parental CHO cell line. [Related pubchem assays (depositor defined):AID434989, AID435008, AID463079, AID485270, AID492963, AID492964, AID492965, AID493232, AID504699, AID504701]
[7] = biological target: Multidrug resistance protein CDR2 (Candida albicans (strain SC5314 / ATCC MYA-2876) (Yeast), UniProt P78595); test: CaCDR2 efflux pump inhibitors in yeast, dose response, S. cerevisiae AD1-8u, singleplex, Cherry Pick2 set (AID 623994); settings: read-out: EC50_MICROM
Multidrug resistance protein CDR2, sequence (P78595 whole entry): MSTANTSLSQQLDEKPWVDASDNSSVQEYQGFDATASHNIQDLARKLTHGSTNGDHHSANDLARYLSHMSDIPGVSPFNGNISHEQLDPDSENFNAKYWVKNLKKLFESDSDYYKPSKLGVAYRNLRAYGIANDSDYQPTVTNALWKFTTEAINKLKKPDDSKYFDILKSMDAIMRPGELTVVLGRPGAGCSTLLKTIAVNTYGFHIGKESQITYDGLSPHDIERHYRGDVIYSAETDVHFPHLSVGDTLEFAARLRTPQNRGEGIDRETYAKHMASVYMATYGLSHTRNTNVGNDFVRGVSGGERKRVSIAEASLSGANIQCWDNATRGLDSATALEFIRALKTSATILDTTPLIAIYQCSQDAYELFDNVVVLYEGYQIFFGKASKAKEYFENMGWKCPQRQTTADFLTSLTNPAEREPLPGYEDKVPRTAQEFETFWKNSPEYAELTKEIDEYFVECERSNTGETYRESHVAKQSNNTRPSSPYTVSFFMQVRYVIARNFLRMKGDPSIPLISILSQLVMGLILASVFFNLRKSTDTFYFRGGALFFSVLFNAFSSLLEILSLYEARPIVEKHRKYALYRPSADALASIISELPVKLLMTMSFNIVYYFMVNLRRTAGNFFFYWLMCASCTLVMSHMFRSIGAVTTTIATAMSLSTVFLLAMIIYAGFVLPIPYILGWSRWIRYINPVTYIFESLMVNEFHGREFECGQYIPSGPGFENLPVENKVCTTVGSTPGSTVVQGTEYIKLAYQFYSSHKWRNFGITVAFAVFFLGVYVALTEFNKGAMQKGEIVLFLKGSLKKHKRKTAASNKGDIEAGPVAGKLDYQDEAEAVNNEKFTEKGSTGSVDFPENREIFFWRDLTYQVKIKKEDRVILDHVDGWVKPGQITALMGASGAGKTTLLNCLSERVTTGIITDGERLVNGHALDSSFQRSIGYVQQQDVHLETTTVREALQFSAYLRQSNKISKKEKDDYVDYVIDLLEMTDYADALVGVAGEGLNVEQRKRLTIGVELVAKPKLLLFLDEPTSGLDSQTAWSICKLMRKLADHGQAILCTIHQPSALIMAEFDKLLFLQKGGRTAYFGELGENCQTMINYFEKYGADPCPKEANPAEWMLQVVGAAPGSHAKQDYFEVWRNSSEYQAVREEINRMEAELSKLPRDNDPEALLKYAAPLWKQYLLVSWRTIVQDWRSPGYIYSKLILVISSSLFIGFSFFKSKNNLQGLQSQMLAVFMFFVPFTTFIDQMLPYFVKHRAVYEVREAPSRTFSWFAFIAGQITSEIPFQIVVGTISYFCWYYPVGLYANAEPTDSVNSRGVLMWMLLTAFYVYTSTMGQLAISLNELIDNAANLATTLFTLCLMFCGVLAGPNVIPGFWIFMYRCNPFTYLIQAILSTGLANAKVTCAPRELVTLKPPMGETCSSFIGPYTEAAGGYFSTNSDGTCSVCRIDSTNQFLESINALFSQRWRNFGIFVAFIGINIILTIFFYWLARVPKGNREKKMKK

[8] = system: CHO-K1; test: as §1, with “Homogeneous time resolved fluorescence (HTRF)-based” for “Fluorescence-based”, “cell-based” for “cell-based high throughput”, “CHO-K1” for “CHO”; settings: Cricetulus griseus;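 further: potency for inhibition of ATP-stimulated IP1 production as antagonists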
[9] = biological target: T2, Orexin/Hypocretin receptor type 1; test: Fluorescence-based cell-based high throughput dose response assay for antagonists of the orexin 1 receptor (OX1R; HCRTR1). [Related pubchem assays (depositor defined):AID434989, AID435008, AID463079, AID485270, AID492963, AID492964, AID492965, AID493232, AID504717, AID504718]
[10] = biological target: Benomyl/methotrexate resistance protein (Candida albicans, UniProt P28873); test: CaMdr1 efflux pump inhibitor potency, dose response, singleplex, Cherry Pick2 set (AID 623992); settings: read-out: EC50_MICROM
Benomyl/methotrexate resistance protein, sequence (P28873 whole entry): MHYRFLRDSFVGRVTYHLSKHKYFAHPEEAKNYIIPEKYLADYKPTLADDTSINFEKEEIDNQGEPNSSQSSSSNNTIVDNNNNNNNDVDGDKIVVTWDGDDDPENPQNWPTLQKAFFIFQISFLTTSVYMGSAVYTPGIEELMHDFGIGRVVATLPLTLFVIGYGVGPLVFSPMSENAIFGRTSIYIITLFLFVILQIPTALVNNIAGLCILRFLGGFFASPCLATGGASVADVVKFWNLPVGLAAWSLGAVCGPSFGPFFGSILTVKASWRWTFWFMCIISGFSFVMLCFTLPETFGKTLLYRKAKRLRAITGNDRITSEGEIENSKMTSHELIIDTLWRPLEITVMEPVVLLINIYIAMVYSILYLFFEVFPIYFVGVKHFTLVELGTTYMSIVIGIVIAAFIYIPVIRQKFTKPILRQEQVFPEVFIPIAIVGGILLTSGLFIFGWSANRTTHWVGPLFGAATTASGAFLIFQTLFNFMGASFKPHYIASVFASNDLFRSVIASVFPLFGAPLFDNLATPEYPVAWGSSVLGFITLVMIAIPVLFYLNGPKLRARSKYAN

[11] = biological target: T3, Ubiquitin-conjugating enzyme E2 N (Homo sapiens, UniProt P61088);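 further: Dose-response confirmation in a TR-FRET assay detecting UBC13-driven polyubiquitin chain formation, inhibition measured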
T3 sequence (P61088 whole entry): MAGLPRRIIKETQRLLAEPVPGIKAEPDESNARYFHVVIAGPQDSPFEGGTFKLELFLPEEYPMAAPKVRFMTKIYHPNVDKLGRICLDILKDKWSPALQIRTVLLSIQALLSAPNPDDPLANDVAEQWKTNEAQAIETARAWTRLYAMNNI

[12] = Luminescence Cell-Based Dose Retest to Confirm Inhibitors of Cancer Stem Cells. [Related pubchem assays (depositor defined):AID2717, AID2721]; settings: Homo sapiens
[13] = biological target: Multidrug resistance protein CDR1 (Candida albicans, UniProt P43071); test: CaCdr1 efflux pump inhibitor potency, dose response, singleplex, Cherry Pick2 set (AID 623996); settings: read-out: EC50_MICROM
Multidrug resistance protein CDR1, sequence (P43071 whole entry, looked up): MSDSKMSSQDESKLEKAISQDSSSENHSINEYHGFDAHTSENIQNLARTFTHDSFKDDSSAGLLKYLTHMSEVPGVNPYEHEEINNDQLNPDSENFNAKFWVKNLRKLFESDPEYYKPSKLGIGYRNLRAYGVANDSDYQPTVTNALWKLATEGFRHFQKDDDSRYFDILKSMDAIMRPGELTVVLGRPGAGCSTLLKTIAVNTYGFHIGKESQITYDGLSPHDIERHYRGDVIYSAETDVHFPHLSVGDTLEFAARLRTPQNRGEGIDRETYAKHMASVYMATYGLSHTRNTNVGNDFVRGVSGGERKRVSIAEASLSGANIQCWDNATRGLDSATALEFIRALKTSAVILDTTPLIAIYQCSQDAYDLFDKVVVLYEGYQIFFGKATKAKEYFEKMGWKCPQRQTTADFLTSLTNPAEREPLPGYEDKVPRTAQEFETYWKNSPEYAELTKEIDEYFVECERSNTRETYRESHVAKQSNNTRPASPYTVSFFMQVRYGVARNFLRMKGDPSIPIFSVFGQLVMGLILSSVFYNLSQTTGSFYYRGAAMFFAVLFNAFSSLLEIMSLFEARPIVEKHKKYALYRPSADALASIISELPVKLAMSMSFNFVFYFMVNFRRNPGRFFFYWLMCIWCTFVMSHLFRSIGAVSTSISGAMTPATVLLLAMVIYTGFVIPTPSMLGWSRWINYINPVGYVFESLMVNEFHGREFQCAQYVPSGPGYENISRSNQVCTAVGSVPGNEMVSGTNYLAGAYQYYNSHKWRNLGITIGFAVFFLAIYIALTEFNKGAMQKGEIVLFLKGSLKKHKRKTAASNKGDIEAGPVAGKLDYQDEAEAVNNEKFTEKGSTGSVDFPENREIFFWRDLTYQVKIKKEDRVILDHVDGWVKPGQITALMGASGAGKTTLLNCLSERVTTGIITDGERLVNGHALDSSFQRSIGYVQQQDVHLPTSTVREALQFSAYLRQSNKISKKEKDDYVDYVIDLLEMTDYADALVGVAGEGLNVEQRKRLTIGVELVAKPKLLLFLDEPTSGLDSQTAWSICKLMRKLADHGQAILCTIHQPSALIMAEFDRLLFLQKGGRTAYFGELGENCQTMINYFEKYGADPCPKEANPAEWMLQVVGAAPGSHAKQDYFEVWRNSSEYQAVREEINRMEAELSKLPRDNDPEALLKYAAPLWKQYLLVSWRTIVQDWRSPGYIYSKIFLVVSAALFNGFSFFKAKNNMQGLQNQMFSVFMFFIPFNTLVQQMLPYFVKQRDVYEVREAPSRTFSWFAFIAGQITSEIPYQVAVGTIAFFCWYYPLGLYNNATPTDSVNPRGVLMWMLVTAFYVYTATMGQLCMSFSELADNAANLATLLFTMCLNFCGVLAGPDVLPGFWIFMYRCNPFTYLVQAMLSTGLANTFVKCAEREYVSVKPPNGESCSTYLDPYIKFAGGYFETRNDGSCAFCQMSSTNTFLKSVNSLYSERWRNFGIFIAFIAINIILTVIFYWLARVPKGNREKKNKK

[14] = Late-stage luminescence-based cell-based dose response assay to identify antagonists of the G-protein coupled receptor 7 (GPR7): Cytotoxicity assay. [Related pubchem assays (depositor defined):AID1861, AID1880, AID1952, AID2148, AID2251, AID2257, AID485339]
[15] = Late-stage results from the probe development effort to identify antagonists of the G-protein coupled receptor 7 (GPR7): luminescence-based cell-based dose response counterscreen assay to determine cytotoxicity of antagonist compounds Set 2.
[16] = biological target: Melanin-concentrating hormone receptor 1 (Homo sapiens, UniProt Q99705); test: Late-stage fluorescence-based counterscreen for antagonists of the G-protein coupled receptor 7 (GPR7): cell-based dose response assay to identify antagonists of the melanin-concentrating hormone receptor 1 (MCHR1). [Related pubchem assays (depositor defined):AID1861, AID1880, AID1952, AID2148, AID2251, AID2257, AID485339];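 further: stimulated with 30 nM MCH peptide agonist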
Melanin-concentrating hormone receptor 1, sequence (Q99705 whole entry): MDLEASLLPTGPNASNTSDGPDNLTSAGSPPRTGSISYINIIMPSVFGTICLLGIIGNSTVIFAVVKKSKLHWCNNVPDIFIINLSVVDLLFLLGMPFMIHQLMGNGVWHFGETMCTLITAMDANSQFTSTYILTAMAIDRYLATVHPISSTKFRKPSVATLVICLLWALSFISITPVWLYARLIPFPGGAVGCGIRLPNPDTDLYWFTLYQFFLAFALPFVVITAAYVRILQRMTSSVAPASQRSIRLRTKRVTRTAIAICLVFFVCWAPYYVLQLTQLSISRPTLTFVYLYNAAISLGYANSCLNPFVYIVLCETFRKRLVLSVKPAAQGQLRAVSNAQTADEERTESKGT
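Wherever AC50 is given: cells exposed to compound for roughly 70 hours or longer before luminescence read.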

**Q.** With `O=C(O)c1cc2nccc(-c3cccs3)n2n1` as the compound, how does the IC50 [1] read?
**A.** Its IC50 is > 99 µM (inactive).

**Q.** And the IC50 [2]?
**A.** Its IC50 is > 99 µM (inactive).

**Q.** For `CC(CN1CCCC1)C(=O)O` (stereo unspecified), which EC50 [3] is on record?
**A.** The EC50 was > 100 µM (inactive).

**Q.** What about the EC50 [4] of the same compound?
**A.** Its EC50 is > 100 µM (inactive).

**Q.** With `COc1cccc(-c2sc3ccc(OC)cc3c2-c2ccc(OCCN(C)C)cc2)c1` as the compound, how does the IC50 [5] read?
**A.** Its IC50 is > 66.2 µM (inactive).

**Q.** What about the IC50 [6] of the same compound?
**A.** Its IC50 is 17.5 µM (inactive).

**Q.** What about the EC50 [7] of the same compound?
**A.** Its EC50 is 15.2 µM (active).

**Q.** And the IC50 [8]?
**A.** Its IC50 is > 66.2 µM (inactive).

**Q.** And the IC50 [9]?
**A.** The IC50 was 15.8 µM (inactive).

**Q.** And the EC50 [10]?
**A.** Its EC50 is 32.1 µM (active).

**Q.** And the IC50 [11]?
**A.** Its IC50 is > 20 µM (inactive).

**Q.** And the AC50 [12]?
**A.** Its AC50 is 3.37 µM (active).

**Q.** What about the EC50 [13] of the same compound?
**A.** Its EC50 is 26.8 µM (active).

**Q.** What does the source list for `COc1ccc(Oc2c(Cl)cnn(-c3cc(C)cc(C)c3)c2=O)cc1`?
**A.** CC50 [14]: > 20 µM (inactive); CC50 [15]: > 20 µM (inactive); IC50 [16]: 3.9 µM (active)
